# Assay results published in PubChem BioAssay (NCI).
#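 Five compound concentrations were applied to cells in 96-well plates for 48 hours; endpoints were derived by simple linear interpolation of the resulting dose-response curve. GI50 marks 50% less growth. At the TGI there is no net growth.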
# Tests used:
# Experiment in all cases: inhibition of tumour cell growth, NCI panel, 48 h
# 786-0 renal = test system: 786-0 renal
# HCT-15 colon = test system: HCT-15 colon
# HOP-62 NSCLC = test system: HOP-62 NSCLC
# KM12 colon = test system: KM12 colon
# MDA-MB-231 breast = test system: MDA-MB-231 breast
# OVCAR-3 ovarian = test system: OVCAR-3 ovarian
# PC-3 prostate = test system: PC-3 prostate
# SK-MEL-5 melanoma = test system: SK-MEL-5 melanoma
# SR leukemia = test system: SR leukemia
# T-47D breast = test system: T-47D breast
Compound,GI50 (786-0 renal) [µM],TGI (786-0 renal) [µM],GI50 (HCT-15 colon) [µM],TGI (HCT-15 colon) [µM],GI50 (HOP-62 NSCLC) [µM],TGI (HOP-62 NSCLC) [µM],GI50 (KM12 colon) [µM],TGI (KM12 colon) [µM],GI50 (MDA-MB-231 breast) [µM],TGI (MDA-MB-231 breast) [µM],GI50 (OVCAR-3 ovarian) [µM],TGI (OVCAR-3 ovarian) [µM],GI50 (PC-3 prostate) [µM],TGI (PC-3 prostate) [µM],GI50 (SK-MEL-5 melanoma) [µM],TGI (SK-MEL-5 melanoma) [µM],GI50 (SR leukemia) [µM],TGI (SR leukemia) [µM],GI50 (T-47D breast) [µM],TGI (T-47D breast) [µM]
CCOc1ccc(NC(=O)c2cc3ccccc3cc2O)cc1,28.4,74.5,> 100,> 100,27.7,81.5,> 100,> 100,53.8,> 100,> 100,> 100,> 100,> 100,> 100,> 100,22.8,> 100,> 100,> 100
O=C(NCCNC(=O)c1ccc(F)cc1)Nc1ccc(-n2cc(-c3ccncc3)c(-c3ccc(Cl)c(O)c3)n2)cc1,0.997,5.77,2.12,7,0.697,23.1,0.433,2.28,0.438,2.26,0.326,1.2,0.39,8.21,0.28,1.12,0.299,2.62,0.884,16
CCCCCCCC(=O)NS(=O)(=O)c1ccccc1,–,> 100,–,> 100,–,> 100,–,> 100,–,> 100,–,> 100,–,> 100,–,> 100,–,> 100,–,> 100
O=C1c2ccccc2C(=O)c2sc(Nc3ccc(Cl)cc3)nc21,–,3.93,–,3.8,–,9.26,–,5.03,1.17,7.38,–,2.74,2.49,10.5,–,3.6,–,5.84,1.8,7.52
NC(=S)N/N=C/c1ccc(OC(=O)COc2ccccc2)cn1,3.89,> 100,20.2,> 100,11.1,80.8,3.16,> 100,8.27,> 100,2.17,> 100,5.34,> 100,3.12,29.1,0.596,> 100,7.45,> 100
CSC(=NC#N)S/C=C/C(=O)c1cccc2ccccc12,16.2,43.5,27.4,> 100,34,61.2,29.1,> 100,26.2,75.4,18,48.2,31.3,99,23.1,55.4,4.71,> 100,8.59,> 100
CC(C)c1ccc(/C=N/N=C(N)N)cc1,12.4,27.3,4.19,16.8,4.61,17.9,3.3,11.6,7.39,21.5,3.5,11.6,4.25,18.6,2.54,8.16,3.31,12.7,2.03,5.53
Cc1ccc(N(/C=C/C(=O)C(F)(F)F)CC(=O)c2ccc(Cl)c(Cl)c2)cc1,13.5,26.3,3.64,14.5,12.3,24.8,3.53,15,3.12,17.9,3.19,16.3,7.06,20,5.64,19.6,2.97,12.6,12.2,25.8
Cn1ccc2c3c(=O)cc[nH]c3ccc21,> 100,> 100,> 100,> 100,> 100,> 100,> 100,> 100,> 100,> 100,> 100,> 100,> 100,> 100,> 100,> 100,> 100,> 100,> 100,> 100
C[n+]1cc2cc3c(cc2c2ccccc21)OCO3,12.4,> 100,70.2,> 100,6.62,43.2,1.22,10.1,10.8,54,3.13,19.4,3.12,26.4,2.71,14.3,3.78,> 100,2.95,14.4
CC(=O)OC1CC2(O)C(CCC3(C)C(c4ccc(=O)oc4)CCC32O)C2(C)CCC(OC3OC(CO)C(O)C(O)C3O)C=C12 (configuration not stated),0.0129,0.03,0.0343,0.134,0.0201,0.144,0.0416,0.2,0.0684,0.396,0.0282,0.0949,0.0248,0.125,0.0196,0.0672,0.015,0.0541,0.0402,0.837
CC(=O)[O][Hg][CH2]C1(C)COC(C)([CH2][Hg][O]C(C)=O)CO1 (configuration not stated),16.8,31,0.432,0.9,40.5,> 63.5,4.1,8.4,12.5,29.2,–,0.0232,16.6,37.5,13.4,26.5,0.607,3.59,2.94,21.4
